# Measurements reported in US6376540B1, “Furan nitrone compounds” (Centaur Pharmaceuticals, Inc., priority 1996, dated 2002).
# Columns and labels:
# [1] = Free radical trapping, DCF oxidation, ferrous iron system; format: biochemical; details: 100 μM test compound, 100 μM FeSO4, 50 μM DCF in MEM, 37° C., 2 hrs
# Experimental: Dichlorofluorescein (DCF) is a compound that fluoresces when oxidized by reactive oxygen species (ROS), such as hydroxyl, peroxyl, or alkoxyl free radicals. Test compounds were evaluated for their ability to scavenge radicals by determining their capacity to prevent the DCF oxidation in a radical generating environment. Two radical generating systems were used: (i) ferrous iron and (ii) tert-butyl hydroperoxide. When ferrous iron is placed in normoxic solution, it autooxidizes to produce ROS in the form of hydroxyl radicals, superoxide anion free radicals, and hydrogen peroxide. Similarly, when tert-butyl hydroperoxide is placed in non-chelated media, trace metals catalyze its oxidation to yield alkoxy, peroxyl, and alkyl free radicals.
# In this assay, either 100 μM FeSO4 or 25 μM tert-butyl hydroperoxide were mixed with 50 μM DCF and 100 μM of the test compound in MEM and the mixture was incubated at 37° C. for 2 hrs. The fluorescence wavelengths measured were 485 nm for excitation and 530 nm for emission. In these tests, N-isopropyl-α-(2-sulfofuran-5-yl)nitrone sodium salt (prepared in Example 1 above) reduced fluorescence by 20% in the Fe^+2 assay and by 13% in the tert-butyl hydroperoxide assay. In comparison, a known free radical trap, N-tert-butyl-α-phenylnitrone (PBN) reduced fluorescence by 48% in the Fe^+2 assay and by 9% in the tert-butyl hydroperoxide assay.
# [2] = tested on: rat permanent middle cerebral artery occlusion (MCAO) model; assay: Rat permanent middle cerebral artery occlusion (MCAO) stroke model; format: in vivo
# Experimental: A rat permanent middle cerebral artery occlusion (MCAO) model was used to determine stroke treatment efficacy. MCAO is a representative model of acute CNS disorders. See, for example, M. D. Ginsberg et al., “Rodent Models of Cerebral Ischemia” (1989) Stroke, 20:1627-1642. In this stroke model, the middle cerebral artery was permanently occluded via cauterization to produce a focal stroke. N-isopropyl-α-(2-sulfofuran-5-yl)nitrone, sodium salt (prepared in Example 1 above) was then administered as a 10 mg/kg i.v. bolus dose three hours post MCAO through a catheter surgically implanted in the jugular vein. Two days post MCAO, the rats were sacrificed and the extent of brain damage assessed using tetrazolium staining (TTC staining) followed by computer image analysis to quantitate infarct volumes, i.e., the regions of dead tissue. The mean infarct volume for rats treated with the test compound was 24.7 mm^3 whereas the mean infarct volume for rats not treated with the test compound was 36.0 mm^3. […] Thus, N-isopropyl-α-(2-sulfofuran-5-yl)nitrone, sodium salt reduced the mean infarct volume of a stroke by 32% when administered three hours post stroke compared to controls.
# female Lewis rats [3] = assay: Prevention of weight loss in the EAE model; format: in vivo, rat; details: 100 mg/kg po once a day, weighed daily
# Experimental: (§1) Acclimated female Lewis rats, (Harlan; 200-250 g) were used in this experiment since this strain of rat is genetically highly susceptible to EAE. In the experiment, 100 mg/kg of N-isopropyl-α-(2-sulfofuran-5-yl)nitrone sodium salt (prepared in Example 1 above) or a vehicle alone (control) was administered po once a day from days 4 to 18. On day 1, the rats received an injection of 100 μg of MBP peptide, from guinea pig brain, plus 500 μg of H37RA Mycobacterium in 0.10 ml complete Freund's adjuvant divided equally between the two hind foot-pads.
# To determine if the furan nitrones of formula I prevented such weight loss, the animals in the EAE model described in Example 27 above were weighed daily.
# Male Sprague-Dawley rats = assay: Locomotor impairment due to Aβ(25-35), apomorphine-induced circling; format: in vivo, rat; details: one hour before and three hours post Aβ injection, apomorphine 0.5 mg/kg s.c. one week after
# Experimental: Male Sprague-Dawley rats (250-400 g) were given an ipsilateral injection of 20 μg of Aβ(25-35) into their substantia nigra. Prior to the injection, the rats were fasted overnight and then each received an oral treatment of N-isopropyl-α-(2-sulfofuran-5-yl)nitrone sodium salt (prepared in Example 1 above)(10-100 mg/kg) dissolved in aqueous 1% methyl cellulose or the vehicle alone, one hour before and three hours post the Aβ-peptide stereotaxic injection. One week after treatment, the rats were dosed s.c. with 0.5 mg/kg apomorphine (dissolved in 0.1% vitamin C in isotonic saline) and the circling reflex was monitored using a Rotorat computerized behavioral monitoring apparatus for the time period between 15 and 30 minutes of being placed in the arena. Impairment of the animals due to Aβ-peptide was determined by measuring the number of rotations over the 15 minute period. A higher number of rotations per period indicates more physical impairment.
# female Lewis rats [4] = assay: MBP-induced experimental allergic encephalomyelitis (EAE), behavioral score; format: in vivo, rat; details: 100 mg/kg po once a day from days 4 to 18
# Experimental: Experimental allergic encephalomyelitis (EAE) induced by injection of myelin basic protein (MBP) or MBP peptide fragments is reported to be a useful model for MS. See, for example, D. E. McFarlin et al., “Recurrent Experimental Allergic Encephalomyelitis in the Lewis Rat,” The Journal of Immunology, 113(2): 712-715 (1974).
# as §1
# The rats were evaluated on a 0-6 scale every day after day 7 until day 18 (effects usually begin day 10 and peak day 15). See E. Heber-Katz, “The Ups and Downs of EAE,” International Reviews Immunology, 9: 277-285 (1992). […] Results are expressed as a behavioral score ranging from 0 to 6.
compound,measurement,setting,value
"CC(C)[N+]([O-])=Cc1ccc(S(=O)(=O)O)o1 [Example 1, N-Isopropyl-α-(2-sulfofuran-5-yl)nitrone]",reduced fluorescence in the Fe^+2 assay,[1],20%
same,mean infarct volume,"[2]; 10 mg/kg i.v. bolus three hours post MCAO, two days post MCAO, TTC staining",24.7 mm^3
same,reduction of mean infarct volume compared to controls,[2]; 10 mg/kg i.v. bolus three hours post stroke,32%
same,weight change,female Lewis rats [3],normal or above normal weight gain
same,Rotations Over 15 Minute Period,Male Sprague-Dawley rats; Aβ(25-35) + 10 mg/kg oral,9
same,Rotations Over 15 Minute Period,Male Sprague-Dawley rats; Aβ(25-35) + 100 mg/kg oral,6
same,effect of MBP on behavioral score (0-6 scale),female Lewis rats [4],completely counteracted the effect of MBP
